{"source": "patent US6121241A", "about": "“Anticoagulant peptide aldehyde derivatives” (Gyogyszerkutato Intezet Kft., priority 1996, dated 2000)", "format_in_all_cases": "biochemical", "key": {"[1]": {"tested_on": "citrate plasma coagulation (PT)", "assay": "Prothrombin time (PT) plasma clotting test", "description": "(§1) Anticoagutant activity (i.e. inhibition of the proteolytic reactions in the process) is measured by anticoagulant tests, e.g. by the thrombin time (TT), activated partial thromboplastin time (APTT) and prothrombin time (PT) tests [E. J. W. Bovie et al; Mayo Clinic Laboratory Manual of Hemostasis; W. B. Sanuders Co., Philadelphia (1971)]. Plasma, inhibited in spontaneous coagulation, e.g. citrate-plasma, is made to coagulate and the required coagulation time is measured. Upon the action of anticoagulants the coagulation time is prolonged proportionally to the inhibition of the reaction(s) in the process. The anticoagulant effect can be characterized by the substance concentration required to double the coagulation time compared to the control (IC50). The effect of anticoagulants on individual coagulant proteases is measured by the amidolytic method [R. Lottenberg et al., Methods in Enzymol. 80, 341 (1981); G. Cleason, Blood Coagulation and Fibrinolysis 5, 411 (1994)]. The isolated active factor (e.g. thrombin, fXa) and its chromogen or fluorogen peptide-amide substrate are reacted in the presence or absence of the inhibitor, resp. The enzyme inhibiting action is characterized by the inhibitory constant (IC50) measured during amidolysis.\nIn the TT test coagulation is initiated by the thrombin added to the citrate plasma. In the system 22 pmol/mL of thrombin is functioning and in the presence of plasma components its inhibition can be measured on the fibrinogen (one of the natural substrates of thrombin) present In the APTT and PT tests the full coagulation process is made to proceed. Depending on the activator fX is activated by the extrinsic or intrinsic pathway. The generated fXa activates prothrombin to thrombin which, in turn, triggers plasma coagulation. In the test the coagulation time is prolonged if the enzymes or one of them is inhibited by the inhibitor. In the APTT and PT tests at most 40 pmole/ml Xa is generated (this is the full amount of factor X present in both systems) while 150 pmole/ml (APTT) and 350 pmole/ml (PT) are generated from thrombin [B Kaiser et al., Thromb. Res. 65, 157 (1992)].\n(§2) The in vitro anticoagulant effect of the compounds of general formula (I) was measured by the prothrombin time (PT), activated partial thromboplastin time (APTT) and thrombin time (TT) tests [D. Bagdy et at., Thromb. Haemost. 67, 325 (1992)]. The Xa-factor-inhibiting effect of the compounds was also determined by using the Bz-Ile-Glu-Gly-Arg-pNA chromogen substrate (see method M6)."}, "human factor Xa": {"target": "T1, human factor Xa (Homo sapiens, UniProt P00742)", "T1 construct": "purchased SIGMA", "T1 sequence (P00742 235-488 limits assumed)": "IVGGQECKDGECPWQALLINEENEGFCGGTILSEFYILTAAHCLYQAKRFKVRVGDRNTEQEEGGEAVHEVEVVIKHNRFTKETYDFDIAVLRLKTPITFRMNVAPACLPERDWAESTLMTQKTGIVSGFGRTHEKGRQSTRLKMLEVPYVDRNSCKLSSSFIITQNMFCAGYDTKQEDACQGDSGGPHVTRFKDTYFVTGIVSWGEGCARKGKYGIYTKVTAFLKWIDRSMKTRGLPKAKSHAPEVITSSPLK", "T1 sequence (P00742 41-179 partner limits assumed)": "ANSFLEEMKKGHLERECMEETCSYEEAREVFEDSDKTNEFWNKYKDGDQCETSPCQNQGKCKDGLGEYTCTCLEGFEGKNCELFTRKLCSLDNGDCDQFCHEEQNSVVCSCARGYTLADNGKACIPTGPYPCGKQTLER", "assay": "Inhibition of the amidolytic effect of factor Xa in solution on Bz-Ile-Glu-Gly-Arg-pNA (method M6)", "conditions": "Table 2; Bz-Ile-Glu-Gly-Arg-pNA, isolated human factor Xa; read-out: B: IC50 (factor Xa inhibiting effect)", "description": "as §1, §2\nAssay of the Inhibition of Factor Xa in Solution on a 96-well Microtiter Plate\na) 1.3 U/mL factor Xa (human, SIGMA), 0.1-1.0-10 and 100 μg/mL solutions in phosphate buffer (0.1 M sodium phosphate and 0.05 M sodium chloride, pH 7.4) of the peptide inhibitors and […] solutions of the substrate Bz-Ile-Glu-Gly-Arg-pNA in distilled water are used.\nb) Three reaction mixtures are prepared from the control and each peptide solution. 30 μL each of the peptide and the buffer, serving as control, 30 μL factor Xa, 90 μL butter and 150 μL substrate are placed in the wells of the plate, then after 10 minutes the extinction values are read at 405 nm The procedure is continued as described in Method M2, point c)."}, "thrombin": {"target": "T2, thrombin (Homo sapiens, UniProt P00734)", "T2 construct": "The isolated active factor (e.g. thrombin, fXa) and its chromogen or fluorogen peptide-amide substrate are reacted", "assay": "Inhibition of the amidolytic effect of thrombin on Tos-Gly-Pro-Arg-pNA", "conditions": "Tos-Gly-Pro-Arg-pNA substrate", "description": "as §1\nIn the case of D-MePhe-Pro-Arg-H (C1) the concentration doubling the clotting time in the TT, APTT and PT tests amounted to 87, 622 and 2915 nM, resp."}, "[2]": {"conditions": "Table 2, concentration doubling clotting time, read-out: A: IC50, PT"}}, "note": "Like-named read-outs stand apart in the source and are kept apart here."}
{"smiles": "N=C(N)NCCC[C@@H](C=O)NC(=O)[C@H]1CCCN1C(=O)C(O)C1CCCCCC1.N=C(N)NCCC[C@@H](C=O)NC(=O)[C@H]1CCCN1C(=O)C(O)C1CCCCCC1.O=S(=O)(O)O", "note": "(stereo partly drawn) [Compound 1, D-2-Cycloheptyl-2-hydroxyacetyl-L-prolyl-L-arginine aldehyde hemisulfate]", "values": [{"measurement": "IC50", "setting": "[1]; [2]", "value": 1200, "unit": "nM"}, {"measurement": "IC50", "setting": "human factor Xa", "value": 63, "unit": "nM"}]}
{"smiles": "CN[C@H](Cc1ccccc1)C(=O)N1CCC[C@H]1C(=O)N[C@H](C=O)CCCNC(=N)N", "note": "[Compound C1, D-MePhe-Pro-Arg-H]", "values": [{"measurement": "IC50", "setting": "[1]; [2]", "value": 2920, "unit": "nM"}, {"measurement": "IC50", "setting": "[1]; read-out: concentration doubling the clotting time in the PT test", "value": 2920, "unit": "nM"}, {"measurement": "IC50", "setting": "thrombin", "value": 2, "unit": "nM"}, {"measurement": "IC50", "setting": "human factor Xa", "value": 9130, "unit": "nM"}]}
